# US20190134039A1, “ANTIVIRAL JAK INHIBITORS USEFUL IN TREATING OR PREVENTING RETROVIRAL AND OTHER VIRAL INFECTIONS” (EMORY UNIVERSITY, priority 2011, published 2019)
# What was measured:
# HIV-1LAI = assay: microbe, parasite or virus in culture; conditions: Human immunodeficiency virus 1, PBMC, in Homo sapiens
# Description: PBM cells were isolated as follows: Lymphocytes were isolated from buffy coats derived from healthy donors obtained from Life South Laboratories (Dunwoody, Ga.). Activated lymphocytes were maintained for 72 hrs in medium that was supplemented with […] phytohemagglutinin (PHA) (Cape Cod associates, East Falmouth, Mass.). Media was comprised of RPMI media supplemented with 20% fetal calf serum, 1% penicillin/streptomyocin and 2% L-glutamine (Sigma Aldrich, San Jose, Calif.).
# PBM cell infections: Testing was performed in duplicate with at least 3 independent assays. Cells were incubated in RPMI medium (HyClone, Logan, Utah) containing HR-IL2 (26.5 units/ml) and 20% fetal calf serum. Infections were performed by adding HIV-1LA1 followed by a further incubation at 37° C., 5% CO2, 1 hr prior to addition of drugs. Assays were performed in 24 well plates (BD Biosciences, Franklin Lakes, N.J.). One ml of supernatant was collected after 5 days in culture and then centrifuged at 12,000 rpm for 2 hr at 4° C. in a Jouan Br43i (Thermo Electron Corp., Marietta, Ohio). The product of the RT assay was quantified using a Packard harvester and direct beta counter and the data were analyzed as previously described (Schinazi et al, 1990).
# Mφ = assay: cells; conditions: Homo sapiens, read-out: IC50 in Mφ *MTT Assay
# activated PBM cells = type: cell-based, human
# Description: The data is shown in FIG. 2, in terms of total cell number (10^6 cells) versus aM drug in medium.
# The data is shown in FIG. 3, in terms of cell viability (%) versus aM drug in medium.
smiles,measurement,setting,value
"N#CC[C@H](C1CCCC1)n1cc(-c2ncnc3[nH]ccc23)cn1 [Jakafi, Ruxolitinib]",EC50,HIV-1LAI; read-out: Anti-HIV-1 EC50 in acutely infected PBM cells,0.1 ± 0.02 µM
same,EC90,HIV-1LAI; read-out: Anti-HIV-1 EC90 in acutely infected PBM cells,4.7 ± 0.07 µM
same,IC50,Mφ,> 100 µM
same,total cell proliferation (total cell number),activated PBM cells,do not affect total cell proliferation
same,total cell viability,activated PBM cells,do not affect total cell viability
